{"source": "patent US6338963B1", "about": "“Use of carbon monoxide dependent guanylyl cyclase modifiers to stimulate neuritogenesis” (NeoTherapeutics, Inc., priority 1994, dated 2002)", "key": {"BDNF": {"system": "BDNF", "assay": "Two-site ELISA of growth factor protein in rat brain and spinal cord: BDNF", "assay_type": "in vivo, F344 rats", "description": "(§1) Adult female F344 rats were given either AIT-082 (doses: 30 mg/kg/day or a higher dose of 30 mg/ml (˜3,000 mg/kg/day); n=6 rats per group) in their drinking water, or water alone, as a vehicle for control. The duration of the study was seven days, at which time the rats were anesthesized and perfused with ice-cold saline. The brains of the rats were rapidly removed. The brains were placed on a chilled glass plate and dissected into the following regions: basal forebrain, frontal cortex, parietal cortex, cerebellum, spinal cord, and hippocampal formation. Tissues were stored at −70° C. until assayed in a specific two-site ELISA for either NGF, BDNF, NT-3, or GNDF.\n(§2) The results are shown in FIGS. 45 (BDNF), 46 (NT-3), 47 (GDNF) and 48 (NGF). For the results shown in FIGS. 45-48, animals were given only water (VEH, n=6) or water with AIT-082 at either 30 mg/kg/day (n=6) or 30 mg/ml (n=6) for seven days. The levels of each growth factor were determined in the frontal cortex (F. Cor.), parietal cortex (P.Cor.), hippocampal formation (Hipp.), basal forebrain (B.F.), cerebellum (Cer.), or spinal cord (Cord) using a specific two-site ELISA for each growth factor.\n(§3) Adult female rats were given AIT-082 (30 mg/kg/day) in their drinking water or drinking water alone (n=6 for each group) for seven days prior to receiving a bilateral fimbria fornix transection (FFT).\n(§4) The results are shown in FIGS. 49 (BDNF), 50 (NT-3), 51 (GDNF) and 52 (NGF). For the results shown in the Figures, animals were given only water (VEH, n=3) or water with AIT-082 at 30 mg/kg/day (n=3). Levels of the growth factor were determined in frontal cortex (F.Cor.), parietal cortex (P.Cor.), hippocampal formation (Hipp.), basal forebrain (B.F.), cerebellum (Cer.), or spinal cord (Cord) using a specific two-site ELISA for each growth factor.\n(§5) Aged female Fischer 344 rats (obtained from National Institute on Aging; 24 months on arrival) were given AIT-082 (30 mg/kg/day) in their drinking water or drinking water alone, for a period of 30 days (n=5 rats per group). After 30 days, animals were sacrificed and fresh tissues were dissected as described above. An additional set of young animals (n=5) was processed along with the aged rats for comparison.\n(§6) Results are shown in FIGS. 53 (BDNF), 54 (NT3), 55 (GDNF), and 56 (NGF). As described above, for the results shown in these figures, aged rats (24 months of age) were given water (vehicle control; n=5) or water with AIT-082 (at 30 mg/kg/day; n=5 for 30 days). A separate group of young untreated animals was also included (n=5). Levels of each growth factor were determined in frontal cortex (F.Cor.), parietal cortex (P. Cor.), hippocampal formation (Hipp.), basal forebrain (B.F.), cerebellum (Cer.) or spinal cord (Cord) using a specific two-site ELISA."}, "Swiss Webster mice": {"system": "Swiss Webster mice", "assay": "T-maze discrimination learning and reversal", "assay_type": "in vivo", "from_the_text": "Subjects were also trained in the same T-maze used for the win-shift model discussed above. As in the win-shift method, subjects were shaped and then given a single reference run in which reward was available in both goal boxes. The subject was only allowed to consume the milk reward in the goal box selected. On the next run, the reward and thus the correct response was in the same goal box selected for the reference run and was not alternated. The subject was required to learn that there was no shift in the goal box for the correct response. The subjects were given 10 trials per day and continued until the subject had at least 8 out of 10 correct responses on two consecutive days. The number of days to reach this criteria of performance was recorded. After the subject reached criteria, the goal box for the correct response was reversed. The number of days taken to reach criteria on reversal was recorded."}, "mice": {"system": "mice", "assay": "Home cage locomotor activity", "assay_type": "in vivo", "description": "To measure home cage locomotor activity, the home cage was placed on a platform of an activity monitor (Stoelting Instruments). Home cage locomotor activity movements were recorded at one minute intervals for 15 minutes. Subjects received saline or AIT-082 and were returned to their home cages. Ten minutes after injection, the home cage was replaced on the platform of the activity monitor. Home cage locomotor activity movements were recorded at one minute intervals for 30 minutes. During the first five minutes, grooming activity was also monitored and recorded."}, "NGF": {"system": "NGF", "assay": "Summary of effects on growth factor mRNA and protein (Table R): NGF", "set-up": "key: ± = mRNA; + = protein; nt = not tested", "conditions": "Aged Brain", "from_the_text": "The constellation of effects of AIT-082 on production of mRNA encoding growth factors and on production of growth factor proteins is shown in Table R. The results summarized in […] show both transcriptional and translational effects on growth factors that are in the categories of neurotrophins, pleiotrophins, members of the S100 family of EF hand calcium binding proteins, and members of the TGFβ superfamily. As indicated, effects have been shown at both the mRNA (transcriptional) and protein (translational) levels."}, "NT-3": {"system": "NT-3", "assay": "Two-site ELISA of growth factor protein in rat brain and spinal cord: NT-3", "assay_type": "in vivo, F344 rats", "description": "as §1, §2, §3, §4, §5, §6"}, "BDNF mRNA": {"system": "BDNF mRNA", "assay": "RT-PCR of growth factor mRNA after T8 spinal cord hemisection: BDNF", "assay_type": "in vivo, Wistar rats"}, "rat cultured astrocytes": {"system": "rat cultured astrocytes", "assay": "Release of radioactively labeled adenine-based purines from rat cultured astrocytes", "assay_type": "cell-based", "conditions": "300 μM, 1 hour", "description": "The experiments were carried out on cultured astrocytes of rat hippocampus at the fourth day in vitro (DIV), obtained from primary cultures replated in 35 mm Petri dishes ([…] cells/dish) and preloaded with [^3H]-adenosine (5×10^−8 M for a specific activity of 20.0 Ci/mM) for 30 minutes at 37° C.\nThe effect of AIT-082 on the proportional release of radioactively labeled adenine nucleosides and nucleotides from rat cultured astrocytes is shown in FIGS. 29A and 29B. Culture medium collected during the first hour of the release was analyzed by high performance liquid chromatography (HPLC) and the radioactivity associated with the different adenine compounds was measured and expressed as a percentage of the total radioactivity released. The results are shown for ATP, ADP, and AMP in FIG. 29A, and for adenosine, inosine, and hypoxanthine in FIG. 29B."}}}
{"smiles": "O=C(CCn1cnc2c(=O)[nH]cnc21)Nc1ccc(C(=O)O)cc1", "note": "[AIT-082, N-4-carboxyphenyl-3-(6-oxohydropurin-9-yl)propanamide]", "values": [{"measurement": "BDNF protein levels over vehicle controls", "setting": "BDNF; FFT-lesioned rats, 30 mg/kg/day, frontal cortex, significance not achieved", "value": "almost threefold"}, {"measurement": "BDNF protein levels", "setting": "BDNF; aged rats, 30 mg/kg/day 30 days, any brain region", "value": "no effect"}, {"measurement": "BDNF protein levels over vehicle controls", "setting": "BDNF; intact adult rats, 30 mg/kg/day in drinking water 7 days, frontal cortex", "value": "more than twofold"}, {"measurement": "BDNF protein levels over vehicle controls", "setting": "BDNF; intact adult rats, 3000 mg/kg/day, frontal cortex", "value": "not seen"}, {"measurement": "BDNF protein levels over vehicle controls", "setting": "BDNF; intact adult rats, spinal cord, not significant (p>0.05)", "value": "twofold"}, {"measurement": "T-maze Learning, Learning", "setting": "Swiss Webster mice; AIT-082 0.5 mg/kg", "value": "3.0 days to reach criteria"}, {"measurement": "T-maze Learning, Reversal", "setting": "Swiss Webster mice; AIT-082 0.5 mg/kg", "value": "3.78 days to reach criteria"}, {"measurement": "T-maze Learning, Learning", "setting": "Swiss Webster mice; AIT-082 30.0 mg/kg", "value": "3.3 days to reach criteria"}, {"measurement": "T-maze Learning, Reversal", "setting": "Swiss Webster mice; AIT-082 30.0 mg/kg", "value": "3.5 days to reach criteria"}, {"measurement": "Locomotor activity, Movements (mean ± S.D.) Post-drug", "setting": "mice; AIT dose 0.005 mg/kg", "value": "1375 ± 563"}, {"measurement": "Locomotor activity, Movements (mean ± S.D.) Difference", "setting": "mice; AIT dose 0.005 mg/kg, pre-drug minus post-drug", "value": "509 ± 429"}, {"measurement": "Locomotor activity, Movements (mean ± S.D.) Difference", "setting": "mice; AIT dose 0.05 mg/kg", "value": "209 ± 340"}, {"measurement": "Locomotor activity, Movements (mean ± S.D.) Post-drug", "setting": "mice; AIT dose 0.05 mg/kg", "value": "1508 ± 456"}, {"measurement": "Locomotor activity, Movements (mean ± S.D.) Difference", "setting": "mice; AIT dose 0.5 mg/kg", "value": "290 ± 435"}, {"measurement": "Locomotor activity, Movements (mean ± S.D.) Post-drug", "setting": "mice; AIT dose 0.5 mg/kg", "value": "1320 ± 689"}, {"measurement": "Locomotor activity, Movements (mean ± S.D.) Difference", "setting": "mice; AIT dose 30.0 mg/kg", "value": "342 ± 267"}, {"measurement": "Locomotor activity, Movements (mean ± S.D.) Post-drug", "setting": "mice; AIT dose 30.0 mg/kg", "value": "1098 ± 189"}, {"measurement": "NGF, effect on mRNA/protein production", "setting": "NGF", "value": "±"}, {"measurement": "NT-3 protein levels compared to vehicle controls", "setting": "NT-3; FFT-lesioned rats, 30 mg/kg/day, basal forebrain", "value": "threefold"}, {"measurement": "NT-3 protein levels", "setting": "NT-3; aged rats, 30 mg/kg/day 30 days, hippocampus", "value": "restored NT-3 protein levels to those of young animals"}, {"measurement": "NT-3 protein levels", "setting": "NT-3; intact adult rats, 30 mg/kg/day, cerebellum", "value": "increased NT-3 levels in cerebellum over vehicle controls"}, {"measurement": "NT-3 protein levels", "setting": "NT-3; intact adult rats, 3000 mg/kg/day, cerebellum", "value": "absent"}, {"measurement": "BDNF mRNA level", "setting": "BDNF mRNA; at the level of the lesion", "value": "no significant differences"}, {"measurement": "BDNF mRNA level", "setting": "BDNF mRNA; caudal to lesion, 7 days", "value": "no significant effects"}, {"measurement": "BDNF mRNA level", "setting": "BDNF mRNA; rostral to lesion, 3 days, 20 mg/kg day in drinking water, sham-operated over lesion animals", "value": "significantly increased"}, {"measurement": "BDNF mRNA level", "setting": "BDNF mRNA; rostral to lesion, 7 days, lesioned treated vs lesioned not treated", "value": "significantly higher"}]}
{"smiles": "Nc1nc2c(ncn2[C@@H]2O[C@H](CO)[C@@H](O)[C@H]2O)c(=O)[nH]1", "note": "[guanosine]", "values": [{"measurement": "ADP, proportional release", "setting": "rat cultured astrocytes", "value": "(6.5 ± 0.7) percentage of the total [^3H]-purines released"}, {"measurement": "Adenosine, proportional release", "setting": "rat cultured astrocytes", "value": "(11.9 ± 0.8) percentage of the total [^3H]-purines released"}, {"measurement": "Inosine, proportional release", "setting": "rat cultured astrocytes", "value": "(36.0 ± 3.9) percentage of the total [^3H]-purines released"}]}
